Test results from PubChem BioAssay AID2060612 (Molecular Pharmacology Branch, DTP, NCI, 2025).

System: 565232-114-T-J1-PDC complex spheroid viability
Assay: Anticancer human tumor 565232-114-T-J1-PDC patient-derived bladder carcinoma cell line growth inhibition [CLK]
Settings: for IC50: curve of first compound; for viability, T/C: stronger effect = lower value
How it was run: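 Patient-derived tumor cells grown as complex spheroids with HUVEC endothelial cells and mesenchymal stem cells, treated with drug combinations. Concentrations descend in half-log steps from near clinical Cmax, or from 10 microM if Cmax unknown.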

[1] = second compound 0.0316 µM, first compound 0.0316 µM
[2] = second compound 0.0316 µM, first compound 0.1 µM
[3] = second compound 0.0316 µM, first compound 0.316 µM
[4] = second compound 0.0316 µM, first compound 1 µM
[5] = second compound 0.0316 µM, first compound 3.16 µM
[6] = second compound 0.0316 µM, first compound 10 µM
[7] = second compound 0.1 µM, first compound 0.0316 µM
[8] = second compound 0.1 µM, first compound 0.1 µM
[9] = second compound 0.1 µM, first compound 0.316 µM
[10] = second compound 0.1 µM, first compound 1 µM
[11] = second compound 0.1 µM, first compound 3.16 µM
[12] = second compound 0.1 µM, first compound 10 µM
[13] = second compound 0.316 µM, first compound 0.0316 µM
[14] = second compound 0.316 µM, first compound 0.1 µM
[15] = second compound 0.316 µM, first compound 0.316 µM
[16] = second compound 0.316 µM, first compound 1 µM
[17] = second compound 0.316 µM, first compound 3.16 µM
[18] = second compound 0.316 µM, first compound 10 µM
[19] = second compound 1 µM, first compound 0.0316 µM
[20] = second compound 1 µM, first compound 0.1 µM
[21] = second compound 1 µM, first compound 0.316 µM
[22] = second compound 1 µM, first compound 1 µM
[23] = second compound 1 µM, first compound 3.16 µM
[24] = second compound 1 µM, first compound 10 µM
[25] = second compound 3.16 µM, first compound 0.0316 µM
[26] = second compound 3.16 µM, first compound 0.1 µM
[27] = second compound 3.16 µM, first compound 0.316 µM
[28] = second compound 3.16 µM, first compound 1 µM
[29] = second compound 3.16 µM, first compound 3.16 µM
[30] = second compound 3.16 µM, first compound 10 µM
[31] = second compound 10 µM, first compound 0.0316 µM
[32] = second compound 10 µM, first compound 0.1 µM
[33] = second compound 10 µM, first compound 0.316 µM
[34] = second compound 10 µM, first compound 1 µM
[35] = second compound 10 µM, first compound 3.16 µM
[36] = second compound 10 µM, first compound 10 µM
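Also: spheroids exposed to compounds for 7 days before readout.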
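For viability, T/C in this document: 100% = DMSO vehicle wells with luminescence normalized to vehicle control.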

CC1(C)CCC(CN2CCN(c3ccc(C(=O)NS(=O)(=O)c4ccc(NCC5CCOCC5)c([N+](=O)[O-])c4)c(Oc4cnc5[nH]ccc5c4)c3)CC2)=C(c2ccc(Cl)cc2)C1 + CN1CCN(c2cc(C(=O)Nc3cc4cc(-c5cnn(C)c5)ccc4cn3)ccn2)CC1
IC50 (second compound 0.0316 µM): 9100 nM
IC50 (second compound 0.1 µM): 8010 nM
IC50 (second compound 0.316 µM): < 31.6 nM
IC50 (second compound 1 µM): < 31.6 nM
IC50 (second compound 3.16 µM): < 31.6 nM
IC50 (second compound 10 µM): < 31.6 nM
viability, T/C [1]: 104%
viability, T/C [2]: 89%
viability, T/C [3]: 98.6%
viability, T/C [4]: 95.9%
viability, T/C [5]: 79.5%
viability, T/C [6]: 47.4%
viability, T/C [7]: 88.2%
viability, T/C [8]: 79.3%
viability, T/C [9]: 95.1%
viability, T/C [10]: 119%
viability, T/C [11]: 82.2%
viability, T/C [12]: 42.3%
viability, T/C [13]: 13.7%
viability, T/C [14]: 18.3%
viability, T/C [15]: 18.5%
viability, T/C [16]: 17.6%
viability, T/C [17]: 22.8%
viability, T/C [18]: 11.4%
viability, T/C [19]: 1.1%
viability, T/C [20]: 0.27%
viability, T/C [21]: 0.22%
viability, T/C [22]: 0.2%
viability, T/C [23]: 0.21%
viability, T/C [24]: 0.31%
viability, T/C [25]: 0.35%
viability, T/C [26]: 2.16%
viability, T/C [27]: 1.93%
viability, T/C [28]: 0.23%
viability, T/C [29]: 1.8%
viability, T/C [30]: 1.49%
viability, T/C [31]: 0.16%
viability, T/C [32]: 1.55%
viability, T/C [33]: 1.55%
viability, T/C [34]: 0.15%
viability, T/C [35]: 0.15%
viability, T/C [36]: 0.8%

C=CC(=O)N1CCN(c2nc(=O)n(-c3c(C)ccnc3C(C)C)c3nc(-c4c(O)cccc4F)c(F)cc23)C(C)C1 (stereo not drawn) + CNC(=O)c1ccc(Nc2nc(OC3CCCC3)c3c(-c4ccc5nc(C)oc5c4)c[nH]c3n2)c(OC)c1
IC50 (second compound 0.0316 µM): > 10000 nM
IC50 (second compound 0.1 µM): > 10000 nM
IC50 (second compound 0.316 µM): < 31.6 nM
IC50 (second compound 1 µM): < 31.6 nM
IC50 (second compound 3.16 µM): < 31.6 nM
IC50 (second compound 10 µM): < 31.6 nM
viability, T/C [1]: 102%
viability, T/C [2]: 83.5%
viability, T/C [3]: 98.2%
viability, T/C [4]: 94.4%
viability, T/C [5]: 105%
viability, T/C [6]: 118%
viability, T/C [7]: 64.9%
viability, T/C [8]: 55.1%
viability, T/C [9]: 57.2%
viability, T/C [10]: 58.2%
viability, T/C [11]: 69.6%
viability, T/C [12]: 58.8%
viability, T/C [13]: 35.3%
viability, T/C [14]: 37.5%
viability, T/C [15]: 34.3%
viability, T/C [16]: 32.8%
viability, T/C [17]: 42.5%
viability, T/C [18]: 37.8%
viability, T/C [19]: 21.6%
viability, T/C [20]: 24.7%
viability, T/C [21]: 25.1%
viability, T/C [22]: 26.1%
viability, T/C [23]: 29.1%
viability, T/C [24]: 27.5%
viability, T/C [25]: 21.4%
viability, T/C [26]: 19.8%
viability, T/C [27]: 21.8%
viability, T/C [28]: 23.6%
viability, T/C [29]: 28.3%
viability, T/C [30]: 23.2%
viability, T/C [31]: 22.1%
viability, T/C [32]: 14.6%
viability, T/C [33]: 18.9%
viability, T/C [34]: 26%
viability, T/C [35]: 28.1%
viability, T/C [36]: 25%

CC(=O)O[C@H]1C(=O)[C@@]2(C)[C@H]([C@H](OC(=O)c3ccccc3)[C@]3(O)C[C@H](OC(=O)[C@H](O)[C@@H](NC(=O)c4ccccc4)c4ccccc4)C(C)=C1C3(C)C)[C@]1(OC(C)=O)CO[C@@H]1C[C@@H]2O + CN1CCN(c2cc(C(=O)Nc3cc4cc(-c5cnn(C)c5)ccc4cn3)ccn2)CC1
IC50 (second compound 0.0316 µM): < 31.6 nM
IC50 (second compound 0.1 µM): < 31.6 nM
IC50 (second compound 0.316 µM): < 31.6 nM
IC50 (second compound 1 µM): < 31.6 nM
IC50 (second compound 3.16 µM): < 31.6 nM
IC50 (second compound 10 µM): < 31.6 nM
viability, T/C [1]: 33.2%
viability, T/C [2]: 17.3%
viability, T/C [3]: 18.3%
viability, T/C [4]: 16.5%
viability, T/C [5]: 21.1%
viability, T/C [6]: 20.4%
viability, T/C [7]: 25.3%
viability, T/C [8]: 23.1%
viability, T/C [9]: 20.2%
viability, T/C [10]: 16.3%
viability, T/C [11]: 17%
viability, T/C [12]: 22.6%
viability, T/C [13]: 7.34%
viability, T/C [14]: 11.6%
viability, T/C [15]: 13.5%
viability, T/C [16]: 12.6%
viability, T/C [17]: 13.7%
viability, T/C [18]: 14.9%
viability, T/C [19]: 1.4%
viability, T/C [20]: 0.18%
viability, T/C [21]: 0.18%
viability, T/C [22]: 0.13%
viability, T/C [23]: 0.16%
viability, T/C [24]: 0.95%
viability, T/C [25]: 0.15%
viability, T/C [26]: 0.19%
viability, T/C [27]: 0.17%
viability, T/C [28]: 1.81%
viability, T/C [29]: 0.95%
viability, T/C [30]: 3.05%
viability, T/C [31]: 0.18%
viability, T/C [32]: 0.55%
viability, T/C [33]: 2.34%
viability, T/C [34]: 0.22%
viability, T/C [35]: 1.4%
viability, T/C [36]: 0.16%

COc1ccc([C@@H](O)c2cc(-c3ncnc4cc(N5CCOCC5)ccc34)c(F)cc2Cl)nn1 + CNC(=O)c1ccc(Nc2nc(OC3CCCC3)c3c(-c4ccc5nc(C)oc5c4)c[nH]c3n2)c(OC)c1
IC50 (second compound 0.0316 µM): > 10000 nM
IC50 (second compound 0.1 µM): < 31.6 nM
IC50 (second compound 0.316 µM): < 31.6 nM
IC50 (second compound 1 µM): < 31.6 nM
IC50 (second compound 3.16 µM): < 31.6 nM
IC50 (second compound 10 µM): < 31.6 nM
viability, T/C [1]: 87.3%
viability, T/C [2]: 87.1%
viability, T/C [3]: 98.5%
viability, T/C [4]: 113%
viability, T/C [5]: 115%
viability, T/C [6]: 88.6%
viability, T/C [7]: 47%
viability, T/C [8]: 41.6%
viability, T/C [9]: 36.9%
viability, T/C [10]: 34.3%
viability, T/C [11]: 34.6%
viability, T/C [12]: 35.8%
viability, T/C [13]: 26.4%
viability, T/C [14]: 29.9%
viability, T/C [15]: 27.9%
viability, T/C [16]: 32%
viability, T/C [17]: 24.5%
viability, T/C [18]: 24.8%
viability, T/C [19]: 23.8%
viability, T/C [20]: 22.1%
viability, T/C [21]: 19.9%
viability, T/C [22]: 22.1%
viability, T/C [23]: 23%
viability, T/C [24]: 19.2%
viability, T/C [25]: 15.7%
viability, T/C [26]: 19.6%
viability, T/C [27]: 17.4%
viability, T/C [28]: 14.5%
viability, T/C [29]: 14.9%
viability, T/C [30]: 13.6%
viability, T/C [31]: 19%
viability, T/C [32]: 17.1%
viability, T/C [33]: 14.4%
viability, T/C [34]: 15.9%
viability, T/C [35]: 15.2%
viability, T/C [36]: 15.8%
